Molecular target: T1, rL-PI-PLC (recombinant LB361 gene product; L-PI-PLC) (Leptospira interrogans, UniProt Q8EX56)
T1 construct: gene LB_361; entire LB361 gene (amplicon 384 bp) in pET42a, expressed in E. coli BL21DE3, Ni-NTA purified
Assay: IP3 fluorescence polarization assay, Lineweaver-Burk plot
Type: biochemical
Conditions: pH 7.0, 37 °C, 50 mM HEPES, 100 mM KCl, 1.9 mM CaCl2, 2 mM EGTA, 0.1% sodium deoxycholate; acyl chains of PIP2 not told

T1 sequence (Q8EX56 entry or part of it): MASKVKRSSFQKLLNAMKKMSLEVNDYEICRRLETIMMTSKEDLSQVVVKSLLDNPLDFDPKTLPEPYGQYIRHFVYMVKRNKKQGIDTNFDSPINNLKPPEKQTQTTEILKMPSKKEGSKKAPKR

## PIP2
  Km: 199 µM
